Results from publication PMC8654833 (Scientific Reports, 2021).
Values joined by “and” are separate entries in the source; they are usually repeats but may differ in a detail not shown here. Equal entries are not always repeated.

Experiments:
5-HT5A = target: T1, 5-HT5A (Homo sapiens, UniProt P47898); assay: Single-concentration radioligand binding screen (Eurofins Cerep), 5-HT5A; conditions: single concentration 10 µM screen, [3H]LSD
T1 construct: Euroscreen FAST (contract assay)
Experimental: (§1) This study included binding assays (87 GPCR targets), measured as % of binding inhibition of a reference radioligand, as well as uptake and enzyme assays (19 targets), the latter measured as % inhibition of control enzyme activity. […] It was performed by radioligand binding competition by Euroscreen (Euroscreen FAST, Belgium). The following nanomolar concentrations were tested in duplicate: 0.001, 0.01, 0.1, 1, 10, 100, 1000, 10,000. Dose–response curves were fitted with the least squares method. IC50 results are shown as pIC50, corresponding to the negative log10 of IC50 in molar.

[1] = tested on: microglia related genes in the cervical and thoracic spinal cord; assay: RT-qPCR of microglia related genes in spinal cord; format: in vivo, Sod1^G86R mice
Experimental: (§2) We then sought to characterize whether BW modulated microglial physiology and used RT-qPCR to measure microglia related genes in the cervical and thoracic spinal cord of animals treated with either vehicle or 3 mg/kg/d of BW. […] We next wanted to see if these changes in gene expression were accompanied by modification of microglial activation in spinal cord of treated mice. Iba1 + cells were classified in 4 different activation states (resting, activated, phagocytic or dystrophic).
Total RNA was extracted from the cervical and thoracic spinal cord of end stage mice using TRIzol (Invitrogen). Reverse transcription was performed using 1 μg of RNA and the iScript cDNA synthesis kit (BioRad). IQ SYBR green Supermix (BioRad) was used to perform RT-PCR. Data were normalized with GeNorm software (RRID: SCR_006763)[25]. Three reporter genes were used for normalization: POL2, TBP and Actin. Oligonucleotide primers are provided in Supplementary Table S1.

5-HT2C = target: T2, 5-HT2C (Homo sapiens, UniProt P28335); assay: Radioligand binding competition dose-response (Euroscreen), 5-HT2C
T2 construct: Euroscreen FAST (contract assay)
T2 sequence (P28335 33-458): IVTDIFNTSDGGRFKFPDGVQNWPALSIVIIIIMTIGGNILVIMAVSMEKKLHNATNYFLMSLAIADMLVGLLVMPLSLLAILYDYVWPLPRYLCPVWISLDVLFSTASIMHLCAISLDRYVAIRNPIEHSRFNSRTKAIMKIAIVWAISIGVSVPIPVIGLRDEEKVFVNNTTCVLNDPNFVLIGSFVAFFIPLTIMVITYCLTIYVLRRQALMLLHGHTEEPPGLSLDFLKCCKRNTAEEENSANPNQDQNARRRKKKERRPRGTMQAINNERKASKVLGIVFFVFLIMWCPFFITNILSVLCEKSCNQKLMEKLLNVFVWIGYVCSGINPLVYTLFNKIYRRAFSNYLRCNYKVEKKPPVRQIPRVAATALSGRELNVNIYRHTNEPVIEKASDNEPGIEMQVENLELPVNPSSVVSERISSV
Experimental: as §1

[2] = tested on: microglia and motor neurons in the ventral spinal cord; assay: Iba1 and ChAT immunostaining of lumbar spinal cord; format: in vivo; conditions: Sod1^G86R mice
Experimental: as §2
Lumbar spinal cord was dissected and cryopreserved before OCT inclusion. Samples were cut with a cryostat (Leica CM30505) at 20 µm of thickness. Iba1 (1:100, Sigma cat#SAB2702364, RRID: AB_2820253) and ChaT (1:100, Millipore cat#AB144P) immunostainings were performed using DAB peroxidase technique to assess microglial integrity and motor neuron degeneration. Images were acquired using a Leica DM750 microscope at × 10 magnification. Cells were counted in the ventral horn in a standardized zone with n = 4–10 images per animal, and subsequently classified using FIJI software (RRID: SCR_002285)[23],[24].

Ca^2+ channel, vs [3] = assay: Radioligand binding competition dose-response (Euroscreen), Ca2+ channel verapamil site
Experimental: as §1

mitral valve = assay: Mitral valve thickness by histology (hematoxylin/eosin); format: in vivo; conditions: Sod1^G86R mice, 3 mg/kg/d; vehicle 57.7 µm
Experimental: To this aim, we measured mitral valve thickness using histology (Fig. 3). […] The lack of beneficial effect of BW on survival and motor function is not due to the developpement of valvulopathy nor cardiac failure. Thus, BW is not protective in Sod1^G86R mice independently of any potential cardiotoxicity.
After dissection and rinse with PBS 1X, hearts were fixed for 72 h in formaldehyde 4% solution. After paraffin inclusion, cuts of 4 µm thickness were made. Hematoxylin/eosin staining was performed on these cuts. Inclusion and staining were performed by the department of histopathology and embyology of the mouse clinical institute (ICS, Illkirch-Graffenstaden). Valve imaging was performed with a Leica DFC425C camera mounted on a microscope Leica DM750, at × 10 magnification (cat# 506228, 10x/0.25 HI PLAN ∞/−), with LAS V4.8 software (Leica Microsystems). […] Average thickness was determined by rapporting the area on the length of the leaflet.

5-HT7 = target: T3, 5-HT7 (Homo sapiens, UniProt P34969); assay: Radioligand binding competition dose-response (Euroscreen), 5-HT7
T3 construct: Euroscreen FAST (contract assay)
T3 sequence (P34969 whole entry, species assumed): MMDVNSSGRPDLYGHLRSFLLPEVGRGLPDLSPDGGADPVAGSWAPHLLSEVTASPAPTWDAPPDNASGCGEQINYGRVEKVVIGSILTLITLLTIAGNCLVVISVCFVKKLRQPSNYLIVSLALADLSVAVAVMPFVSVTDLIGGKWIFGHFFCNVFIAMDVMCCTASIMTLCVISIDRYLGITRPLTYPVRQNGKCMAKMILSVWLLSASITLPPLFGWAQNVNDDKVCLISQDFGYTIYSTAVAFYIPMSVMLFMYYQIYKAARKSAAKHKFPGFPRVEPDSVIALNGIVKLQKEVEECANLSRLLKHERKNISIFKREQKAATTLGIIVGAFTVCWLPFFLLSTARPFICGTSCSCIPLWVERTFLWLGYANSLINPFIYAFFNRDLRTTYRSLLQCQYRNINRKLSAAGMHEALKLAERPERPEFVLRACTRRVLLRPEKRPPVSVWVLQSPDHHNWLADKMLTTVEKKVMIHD
Experimental: as §1

5-HT2B = 5-HT2B (Homo sapiens, UniProt P41595); assay: Single-concentration radioligand binding screen (Eurofins Cerep), 5-HT2B; set-up: Euroscreen FAST (contract assay); conditions: single concentration 10 µM screen, [3H]mesulergine
Chain of 5-HT2B (P41595 whole entry, species assumed): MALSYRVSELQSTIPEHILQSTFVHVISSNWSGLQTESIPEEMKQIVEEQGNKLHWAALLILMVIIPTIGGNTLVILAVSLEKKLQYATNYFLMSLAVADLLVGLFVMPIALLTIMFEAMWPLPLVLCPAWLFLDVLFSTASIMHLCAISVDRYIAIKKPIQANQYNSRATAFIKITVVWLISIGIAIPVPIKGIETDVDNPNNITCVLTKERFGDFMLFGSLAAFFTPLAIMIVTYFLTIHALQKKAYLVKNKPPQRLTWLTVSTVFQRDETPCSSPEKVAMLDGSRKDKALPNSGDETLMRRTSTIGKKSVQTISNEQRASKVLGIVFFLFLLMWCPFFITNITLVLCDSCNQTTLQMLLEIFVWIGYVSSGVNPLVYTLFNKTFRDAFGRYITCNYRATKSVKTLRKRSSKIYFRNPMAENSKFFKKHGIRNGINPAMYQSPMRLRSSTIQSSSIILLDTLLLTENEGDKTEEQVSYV

[4] = Plasma and brain distribution after single IP injection; conditions: CD-1, mouse, 10 mg/kg
5-HT1B = target: T4, 5-HT1B (Homo sapiens, UniProt P28222); assay: Radioligand binding competition dose-response (Euroscreen), 5-HT1B
T4 construct: Euroscreen FAST (contract assay)
T4 sequence (P28222 whole entry, species assumed): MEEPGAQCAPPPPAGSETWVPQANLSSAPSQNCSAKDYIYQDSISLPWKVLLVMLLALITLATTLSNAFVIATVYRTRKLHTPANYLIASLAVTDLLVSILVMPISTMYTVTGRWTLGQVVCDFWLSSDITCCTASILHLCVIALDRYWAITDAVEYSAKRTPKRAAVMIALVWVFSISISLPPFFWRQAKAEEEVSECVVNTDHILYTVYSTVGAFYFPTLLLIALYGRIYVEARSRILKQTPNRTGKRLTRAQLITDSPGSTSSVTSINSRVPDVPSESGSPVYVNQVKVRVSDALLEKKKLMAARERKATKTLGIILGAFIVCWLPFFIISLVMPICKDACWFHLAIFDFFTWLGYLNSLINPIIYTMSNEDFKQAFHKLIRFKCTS
Experimental: as §1

Ca^2+ channel, vs [5] = assay: Single-concentration radioligand binding screen (Eurofins Cerep), Ca2+ channel verapamil site; conditions: single concentration 10 µM screen, [3H]D888
Experimental: as §1

T1 sequence (P47898 whole entry, species assumed): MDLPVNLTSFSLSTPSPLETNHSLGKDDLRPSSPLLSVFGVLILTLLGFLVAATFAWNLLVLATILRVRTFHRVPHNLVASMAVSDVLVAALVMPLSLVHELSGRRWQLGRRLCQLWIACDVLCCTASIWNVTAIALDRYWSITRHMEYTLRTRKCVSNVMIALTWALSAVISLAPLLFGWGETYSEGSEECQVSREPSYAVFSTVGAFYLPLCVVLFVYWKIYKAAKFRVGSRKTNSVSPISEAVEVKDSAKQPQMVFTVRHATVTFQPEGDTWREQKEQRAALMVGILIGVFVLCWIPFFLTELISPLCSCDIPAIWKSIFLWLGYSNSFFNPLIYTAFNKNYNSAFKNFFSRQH

## CC(N)Cc1c[nH]c2ccc(OCc3cccs3)cc12 (stereo not shown) [BW, 1-[5-(thiophen-2-ylmethoxy)-1H-indol-3-yl]propan-2-amine]
5-HT5A
  inhibition at 10 µM: 54.6%
[1]; 3 mg/kg/d, spinal cord RT-qPCR
  Hexb upregulation in Sod1^G86R mice: partially prevented
  disease-associated upregulation of Nox2: partially prevented
  disease-associated upregulation of Tyrobp (DAP12): partially prevented
  upregulation of disease-associated microglia marker Apoe: blunted the upregulation
  upregulation of disease-associated microglia marker Cd9: blunted the upregulation
  upregulation of disease-associated microglia marker Cst7: blunted the upregulation
  upregulation of disease-associated microglia marker Lpl: blunted the upregulation
[1]; Sod1^G86R mice with BW treatment
  Tmem119 expression: downregulated
5-HT2C
  IC50: 1320 nM
5-HT2C; dose-response study, maximal concentration 10 µM, [3H]mesulergine
  inhibition at 10 µM: 91.1%
[2]; 3 mg/kg/d vs vehicle
  microglial morphology (proportion of resting, activated, phagocytic, dystrophic Iba1+ cells): No statistically significant difference
[2]; 3 mg/kg/d
  loss of motor neurons (ChAT positive cells in the ventral spinal cord): did not modify
Ca^2+ channel, vs [3]; [3H]D888 competition
  pIC50: 5.21
Ca^2+ channel, vs [3]; dose-response study, maximal concentration 10 µM, [3H]D888
  %Binding inhibition at 10 µM: 51.29%
Ca^2+ channel, vs [3]; verapamil site of calcium channel vs 5-HT2BR
  pIC50 difference as compared to 5-HT2BR: 2.3 log10
Mitral valve
  mitral valve thickness: 60.2 µm
5-HT7
  IC50: 1020 nM
5-HT7; dose-response study, maximal concentration 10 µM, [3H]LSD
  inhibition at 10 µM: 91.8%
5-HT2B
  inhibition at 10 µM: 99%
[4]; in vivo
  Tmax: ~30 min
  concentration at 4 h: 860 ng/g
  concentration at 8 h: 14.4 ng/mL and 417 ng/g
[4]; plasma
  half-life: 66 min
5-HT1B
  IC50: 182 nM
5-HT1B; dose-response study, maximal concentration 10 µM, [3H]5-CT, 10 µM
  %Binding inhibition at 10 µM: 101.39%
5-HT1B; read-out: %Binding inhibition at 10 µM, dose-response study, maximal concentration 10 µM, [3H]5-CT
  inhibition at 10 µM: 100%
Ca^2+ channel, vs [5]
  %Binding inhibition at 10 µM: 75.5%
